Experiments:
ct-DNA [1] = test: Fluorimetric titration with ct-DNA, Scatchard equation; format: binding, calf; set-up: key: The changes were too small to allow an accurate calculation of the binding constant; settings: I = 0.05 M
Procedure: (§1) Experiments were conducted in an aqueous buffer solution (pH = 7.0 or pH= 5.0, I = 0.05 M, sodium cacodylate buffer). For the UV-Vis spectra were used Varian Cary 100 Bio spectrometer, for fluorescence spectra we used the Varian Cary Eclipse fluorimeter and for CD spectra we used the JASCO J815 spectropolarimeter, all conducted at 25.0 °C using appropriate quartz cuvettes (path length: 1 cm).
(§2) Polynucleotides were purchased as noted: poly dAdT-poly dAdT, poly dGdC-poly dGdC, poly A-poly U (ds-RNA), (Sigma-Aldrich, Schnelldorf, Germany), calf thymus (ct)-DNA (Sigma-Aldrich, Schnelldorf, Germany) and dissolved in sodium cacodylate buffer, I = 0.05 M, pH = 7.0. The ct-DNA was sonicated and filtered through a 0.45 µm filter to obtain mostly short (ca. 100 base pairs) rod-like B-helical DNA fragments. The concentration of DNA or RNA was determined spectroscopically as the c(nucleobase) using producer-provided molar extinction coefficients.
Fortunately, strong emission from the compounds studied allowed fluorimetric titrations to be performed at much lower concentrations of the dyes (c = 5 × 10^−8 M), thus preventing precipitation of non-methylated 1 or 2, and allowing for the collection of numerous data points at excess of DNA/RNA binding sites over c(dye). […] Intriguingly, mixed sequence ct-DNA caused emission quenching of 1M at an excess of dye over ct-DNA (r > 0.1), and such quenching could be attributed to aggregation of 1M along DNA, while at an excess of ct-DNA over dye (r << 0.1), emission increased. The emission of 2M was indiscriminately quenched by all ds-DNA/RNA (Figure 2d).
(§3) Processing of fluorimetric titrations by means of the Scatchard equation [56, 57] yielded binding constants (Table 2). […] Affinities of 1 and 2 toward BSA were the same at both pH values, supporting the conclusion that neutral forms of 1 and 2 were bound.

Solubility in water = format: physicochemical
BSA = BSA (Bos taurus, UniProt P02769); test: Fluorimetric titration with BSA, Scatchard equation; format: binding, bovine; settings: pH 7, sodium cacodylate buffer, I = 0.05 M; read-out: Binding constant logKs BSA (converted)
Chain of BSA (P02769 25-607): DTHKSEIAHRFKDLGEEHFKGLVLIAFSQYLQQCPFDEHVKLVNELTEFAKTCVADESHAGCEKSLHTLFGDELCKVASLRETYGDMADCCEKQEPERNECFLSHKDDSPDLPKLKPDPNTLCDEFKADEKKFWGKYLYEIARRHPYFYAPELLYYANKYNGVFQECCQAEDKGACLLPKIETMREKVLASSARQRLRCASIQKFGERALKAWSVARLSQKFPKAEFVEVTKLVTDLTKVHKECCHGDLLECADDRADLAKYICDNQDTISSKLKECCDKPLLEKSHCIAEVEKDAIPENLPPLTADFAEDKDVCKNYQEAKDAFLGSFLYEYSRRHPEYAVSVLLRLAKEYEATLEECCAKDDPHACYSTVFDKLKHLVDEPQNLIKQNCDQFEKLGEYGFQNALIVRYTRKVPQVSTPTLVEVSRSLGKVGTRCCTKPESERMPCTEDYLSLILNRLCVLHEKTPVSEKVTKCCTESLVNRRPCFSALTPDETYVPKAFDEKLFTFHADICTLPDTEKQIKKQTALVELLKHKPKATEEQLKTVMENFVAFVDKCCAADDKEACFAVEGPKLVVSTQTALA
Procedure: as §1
As the pharmacokinetic properties of small molecules often depend on a binding affinity toward transport proteins (such as serum albumin), we performed fluorimetric titrations with BSA. The emission of both 1M and 2M (Supplementary Information, Figures S15 and S16), was strongly quenched, with compound 2M showing a lower affinity in comparison to ds-DNA/RNA, while the affinity of 1M was similar to that towards ds-DNA/RNA (Table 2).
as §3

A549 cells = test: MTT cell viability assay, A549, with or without UV light; format: cell-based, human; settings: A549
Procedure: Cells. Commercially available from American Type Culture Collection (ATCC), human epithelial lung adenocarcinoma A549 (ATCC® CCL-185™) and human normal lung fibroblast WI-38 (ATCC® CCL-75™) were grown according to supplier’s conditions, namely in Dulbecco Modified Eagle’s Medium (DMEM, Sigma Aldrich, St. Louis, MO, USA) supplemented with 10% of fetal bovine serum (FBS, Sigma Aldrich, USA). Cells were incubated in the cell incubator (Thermo Fischer Scientific, Waltham, MA, USA) at 37 °C and 5% CO2 in a humidified atmosphere.
Cell viability assay. In order to obtain a 10 mM stock solution chemical compounds (2M, 1, and 1M) were sterilely diluted in an appropriate volume of dimethyl sulfoxide solution (DMSO, Gram-Mol, Zagreb, Croatia). Solutions were kept in the dark and stored at 4 °C. The cytotoxic effects of each compound were assayed on A549 and WI-38 cells. […] Briefly, cells were seeded in 96-well tissue culture plates and 24 h later treated with 2M, 1, or 1M in the concentration range of 10–0.1 μM. Cells treated with the same dilutions of DMSO represented the control, while cells treated only with DMEM (10% FBS) represented the negative control. After 72 h, the media was removed, MTT solution was added into each well, and the plate was incubated (37 °C, 5% CO2) for 3 h. The resulting MTT-formazan products were dissolved using DMSO, and their absorbance at 600 nm was measured using a microplate reader.
For determining the effect of UV exposure, cells were seeded on two plates and treated with working solutions of the respective compounds as previously described. Plates were incubated (37 °C, 5% CO2) for 90 min, allowing the compounds to enter the cells. Then, one plate was exposed to UV light (Luzchem reactor, 350 nm, 8 lamps, in total 8 W, dose 50.6 mWm^−2; ~18 cm lamp to cell-plate) for 5 min, 3 days in a row at the same time each day, while the other plate was left in the cell incubator in the dark and served as a control.

ct-DNA [2] = test: Thermal denaturation of ct-DNA (∆Tm); format: binding, calf; settings: r = 0.1, pH 5.0, sodium cacodylate buffer, I = 50 mM
Procedure: as §1, §2
Thermal denaturation of ds-DNA, ds-RNA and their complexes with studied compounds was performed by monitoring the absorption change at 260 nm as a function of temperature. Tm values are the midpoints of the transition curves determined from the maximum of the first derivative and checked graphically by the tangent method. The ∆Tm values were calculated by subtracting the Tm of the free nucleic acid from the Tm of the complex. Every ∆Tm value here reported was the average of at least two measurements. The error in ∆Tm is ± 0.5 °C.

[3] = pKa from pH dependence of UV/vis spectrum; format: physicochemical; settings: water (0.001 M HCl in miliQ water, titrated with NaOH), UV/vis spectra vs pH in water, c = 2.0 × 10^−5 M

c1cc(-c2cc3ccc4cc(-c5ccncc5)cc5ccc(c2)c3c45)ccn1 [compound 2]
Binding constant logKs ct-DNA (ct-DNA [1]; pH 5, sodium cacodylate buffer): 5.7
Binding constant logKs ct-DNA (ct-DNA [1]; pH 7, sodium cacodylate buffer): b
Solubility in water (Solubility in water): poorly soluble in water
Kd (BSA): 5.01 µM
Cytotoxic effect (cell survival, Figure S25) (A549 cells): no cytotoxic effect
∆Tm ct-DNA (ct-DNA [2]): 1.5 °C
pKa [3]: < 4

From article PMC9696974 (Pharmaceutics, 2022)
